Results as given in patent US6756208B2, “Plasma glucosylceramide deficiency as risk factor for thrombosis and modulator of anticoagulant protein C” (priority 2001, dated 2004).
Entries after “also recorded” stand apart in the source; their conditions may differ.

Key:
APC:protein S [1] = experiment: Modified dilute prothrombin time clotting assay with glycolipid vesicles added to normal plasma; format: biochemical, human; settings: for effect on APC:protein S anticoagulant response: 0-100 mg/ml; for anticoagulant response of plasma to APC:protein S (clotting time prolongation, modified PT assay): glycolipid vesicles added to normal plasma, APC plus protein S present; for effect on baseline clotting times: without APC or protein S added
Experimental: Anticoagulant response to APC:protein S. Modified dilute prothrombin time based assays were performed as previously described. Briefly, 7.5 μl of test plasma was mixed with fibrinogen (0.6 mg/ml final concentration) and APC (8.7 nM final) plus protein S (28 nM final) or buffer, and incubated 3 min at 37° C. (100 μl total volume). Clotting times were measured after addition of 50 μl of recombinant human tissue factor (Innovin from DADE, Miami, Fla.) diluted 1:40 in Tris (tris[hydroxymethyl] aminomethane)-buffered saline containing 0.5% bovine serum albumin (TBSA) and 30 mM CaCl2. Baseline clotting times without addition of APC:protein S were also determined. For studies of the effects of glycolipid vesicles or glucocerebrosidase treatment on clotting assays, a 1:64 dilution of Innovin was used in the presence or absence of APC and protein S. In the study of the effect of glucocerebrosidase, 13 nM APC and 42 nM protein S were employed.
Preparation of glycolipid vesicles. To prepare extruded glycolipid vesicles, dried glycolipids GlcCer, Gb3Cer, galactosylceramide (GalCer) (Sigma), and LacCer were suspended at 100 μg/ml in TBS at room temperature, vortexed 5 min, and passed through a 0.2 μm filter (Osmonics, Livermore, Calif.). Concentrations of glycolipids recovered after filtration were determined by HPLC analysis as described above.

factor Va [2] = target: T1, factor Va (Homo sapiens, UniProt P12259); experiment: Factor Va inactivation by APC/protein S with 1, 5 or 10% glycolipid in PC/PS vesicles (Example 7); format: biochemical; settings: for effect on factor Va inactivation by APC:protein S, glycolipid incorporated into PC/PS vesicles (overall statement): glycolipid content not specified; for enhancement of factor Va inactivation by APC/protein S: APC 0.16 nM, 5 min
T1 construct: APC cleaves the heavy chain of factor Va at Arg506, and then Arg306, and perhaps Arg679
T1 sequence (P12259 29-737 limits assumed): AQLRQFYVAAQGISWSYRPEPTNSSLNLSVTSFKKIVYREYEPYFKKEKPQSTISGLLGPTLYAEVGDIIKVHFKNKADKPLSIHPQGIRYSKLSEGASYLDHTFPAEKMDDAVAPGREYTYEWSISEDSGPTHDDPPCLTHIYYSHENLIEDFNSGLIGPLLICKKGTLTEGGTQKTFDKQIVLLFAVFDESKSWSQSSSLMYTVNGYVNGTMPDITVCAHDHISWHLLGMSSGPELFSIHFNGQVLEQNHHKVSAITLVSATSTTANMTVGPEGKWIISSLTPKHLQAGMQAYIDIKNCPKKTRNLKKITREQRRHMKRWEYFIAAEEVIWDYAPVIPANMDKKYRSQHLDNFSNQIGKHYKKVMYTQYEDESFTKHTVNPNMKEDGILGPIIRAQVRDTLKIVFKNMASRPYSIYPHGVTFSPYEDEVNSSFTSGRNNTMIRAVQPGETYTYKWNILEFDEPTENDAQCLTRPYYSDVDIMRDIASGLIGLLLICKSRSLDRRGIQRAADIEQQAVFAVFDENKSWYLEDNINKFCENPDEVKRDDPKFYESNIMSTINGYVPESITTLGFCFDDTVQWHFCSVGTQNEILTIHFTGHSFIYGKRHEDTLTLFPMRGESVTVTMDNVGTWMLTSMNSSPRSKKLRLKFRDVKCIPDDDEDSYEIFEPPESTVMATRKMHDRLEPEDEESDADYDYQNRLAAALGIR
T1 sequence (P12259 1574-2224 limits assumed): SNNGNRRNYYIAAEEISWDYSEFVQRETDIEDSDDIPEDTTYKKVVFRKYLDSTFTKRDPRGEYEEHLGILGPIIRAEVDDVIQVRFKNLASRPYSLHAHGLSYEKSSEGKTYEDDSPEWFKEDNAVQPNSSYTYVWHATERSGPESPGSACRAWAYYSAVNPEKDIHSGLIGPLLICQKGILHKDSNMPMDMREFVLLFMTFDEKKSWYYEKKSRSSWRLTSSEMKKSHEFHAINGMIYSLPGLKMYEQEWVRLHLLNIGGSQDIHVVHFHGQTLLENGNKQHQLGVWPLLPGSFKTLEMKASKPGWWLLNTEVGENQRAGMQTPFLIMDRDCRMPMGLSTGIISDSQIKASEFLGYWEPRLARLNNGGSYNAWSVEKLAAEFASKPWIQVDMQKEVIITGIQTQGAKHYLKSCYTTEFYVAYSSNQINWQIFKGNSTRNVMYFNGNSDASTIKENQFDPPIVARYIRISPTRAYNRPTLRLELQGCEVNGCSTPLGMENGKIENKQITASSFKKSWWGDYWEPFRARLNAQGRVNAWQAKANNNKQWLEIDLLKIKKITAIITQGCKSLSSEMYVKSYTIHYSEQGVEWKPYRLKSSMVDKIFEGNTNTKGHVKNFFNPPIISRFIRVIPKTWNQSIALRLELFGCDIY
Experimental: FIGS. 6A-6E. Anticoagulant response of plasma to APC/protein S is enhanced by addition of glycolipids. Purified factor Va (1.5 nM) was incubated with APC (0.16 nM final)/protein S (18 nM final) and varying lipid vesicles to allow factor Va inactivation for five minutes and then the residual factor Va activity was determined using prothrombin time clotting assays.
Purified factor Va (1.5 nM) was incubated with APC (0.16 nM final)/protein S (18 nM final) and varying lipids vesicles to allow factor Va inactivation for 5 min., and then the residual factor Va activity was determined using prothrombin time clotting assays.

APC:protein S [3] = experiment: Factor Xa-1-stage clotting assays without addition of exogenous lipids; format: biochemical; settings: presence versus absence of APC:protein S; data not shown
factor Va [4] = target: T1, factor Va; experiment: Factor Va inactivation assay with purified proteins (GlcCer vesicles and multicomponent PC/PS/GlcCer vesicles); format: biochemical
Experimental: Large unilamellar multicomponent vesicles were prepared generally as described. (27) Appropriate aliquots of PC, PS and GlcCer were mixed and dried under nitrogen. The lipid mixture was hydrated at a concentration of 6.25 mM lipid in TBS and freeze-thawed 10 times using liquid nitrogen, and the solution of vesicles was passed 15 times through a 0.2 μm filter (Millipore). Concentrations of glycolipid recovered after filtration were determined by HPLC analysis as described above. PC concentration was determined by an enzymatic […] method (Phospholipids B kit, Wako Chemical USA, Inc., Richmond, Va.).
Factor Va inactivation assay. To study the time course of factor Va inactivation by APC:protein S, mixtures containing GlcCer vesicles or control PC vesicles (21.5 μM) or buffer, APC (6 nM final), protein S (18 nM final), and factor Va (1.5 nM) with 5 mM CaCl2 were incubated at 37° C. Aliquots were withdrawn at various times and the reaction was quenched by adding ethylenediamine tetraacetic acid (EDTA) prior to determination of residual factor Va activity. […] The residual factor Va activity was quantitated using prothrombin time clotting assays and standard log-log calibration curves of clotting time versus factor Va concentration generated using purified factor Va and factor V deficient plasma. […]

[5] = 1% glycolipid in PC/PS vesicles
[6] = 5% glycolipid in PC/PS vesicles
[7] = 10% glycolipid in PC/PS vesicles

**Q.** Which “effect on APC:protein S anticoagulant response” value (APC:protein S [1]; data not shown) does the source give for `OC[C@H]1OC(O)[C@H](O)[C@@H](O)[C@@H]1O` (stereo partly drawn) [D-Glc, reference compound] here?
**A.** Its value is “Neither D-Glc alone nor ceramide alone (0-100 mg/ml) affected”.

**Q.** And the “anticoagulant response of plasma to APC:protein S (clotting time prolongation, modified PT assay)” value (“anticoagulant response of plasma” below) (APC:protein S [1])?
**A.** The value was “neither D-Glc alone nor ceramide alone was anticoagulantly active”.

**Q.** ceramide [reference compound] was tested. Which “effect on APC:protein S anticoagulant response” value (APC:protein S [1]; data not shown) did it give?
**A.** The value was “Neither D-Glc alone nor ceramide alone (0-100 mg/ml) affected”.

**Q.** And the “anticoagulant response of plasma” value (APC:protein S [1])?
**A.** Its value is “neither D-Glc alone nor ceramide alone was anticoagulantly active”.

**Q.** Which results are given for galactosylceramide [GalCer]?
**A.** anticoagulant response of plasma to APC:protein S (clotting time prolongation, modified PT assay) (APC:protein S [1]): did not enhance APC:protein S action; also recorded: inactive; effect on baseline clotting times (APC:protein S [1]): no effect on baseline clotting times; enhancement of factor Va inactivation (factor Va [2]; above 10 μg/ml of total lipid, 5 and 10% glycolipid in PC/PS vesicles): enhanced factor Va inactivation by APC/protein C like GlcCer in PC/PS vesicle; effect on factor Va inactivation compared with GlcCer in PC/PS (factor Va [2]; below 10 μg/ml): not as well as GlcCer in PC/PS; effect on factor Va inactivation by APC:protein S, glycolipid incorporated into PC/PS vesicles (overall statement) (factor Va [2]): significantly directly enhance inactivation

**Q.** How did the “effect on factor Va inactivation by APC:protein S, glycolipid incorporated into PC/PS vesicles (overall statement)” value (factor Va [2]) turn out when globotetraosylceramide [Gb4Cer] was run?
**A.** The value was “much weaker effect”.

**Q.** What does the source list for globotriaosylceramide [Gb3Cer]?
**A.** anticoagulant response of plasma to APC:protein S (clotting time prolongation, modified PT assay) (APC:protein S [1]): activity very similar to GlcCer; also recorded: approximately equally active; also recorded: enhanced; enhancement of factor Va inactivation by APC/protein S (factor Va [2]; [5]): enhanced inactivation of factor Va significantly even at 1 μg/ml; enhancement of factor Va inactivation by APC/protein S (factor Va [2]; [6]): enhanced much more; effect on factor Va inactivation by APC:protein S, glycolipid incorporated into PC/PS vesicles (overall statement) (factor Va [2]): significantly directly enhance inactivation

**Q.** Which results are given for glucosylceramide [GlcCer]?
**A.** clotting time prolongation, modified PT assay (APC:protein S [1]; APC alone added without protein S): much less clotting time prolongation; anticoagulant response of plasma to APC:protein S (clotting time prolongation, modified PT assay) (APC:protein S [1]): dose-dependent marked prolongation; also recorded: dose-dependently enhances the anticoagulant response; also recorded: dose-dependently enhanced this anticoagulant response; also recorded: very active; effect on clotting times, modified PT assay (APC:protein S [1]; protein S alone added in the absence of APC, data not shown): no effect on clotting times; effect on baseline clotting times (APC:protein S [1]): without affecting baseline clotting time; clotting time prolongation in factor Xa-1-stage assays (APC:protein S [3]): clotting time prolongation in the presence but not absence of APC:protein S; inactivation of purified factor Va by APC:protein S (overall statement) (factor Va [4]): directly enhanced inactivation of purified factor Va; also recorded: enhances factor Va inactivation; enhancement of factor Va inactivation by APC/protein S (factor Va [2]; [5]): little enhancement effect; factor Va inactivation reached (factor Va [2]; [6]): up to 60%; enhancement of factor Va inactivation by APC/protein S (factor Va [2]; [6]): enhanced inactivation of factor Va much more; concentration from which the enhancement effect was observed (factor Va [2]; 5 and 10% GlcCer in PC/PS vesicle): ≥ 1 µg/mL; factor Va inactivation reached (factor Va [2]; [7]): up to 60%; enhancement of factor Va inactivation by APC/protein S (factor Va [2]; [7]): enhanced inactivation of factor Va much more; effect on factor Va inactivation by APC:protein S, glycolipid incorporated into PC/PS vesicles (overall statement) (factor Va [2]): significantly directly enhance inactivation

**Q.** For lactosylceramide [LacCer], which “anticoagulant response of plasma” value (APC:protein S [1]) is on record?
**A.** The value was “much lower activity; also recorded: does not possess this anticoagulant property”.

**Q.** What about the “enhancement of factor Va inactivation by APC/protein S” value (factor Va [2]; [5]) of the same molecule?
**A.** The value was “little like GlcCer”.

**Q.** And the “factor Va inactivation reached” value (factor Va [2]; [7])?
**A.** The value was “up to 90%”.

**Q.** And the “enhancement of factor Va inactivation by APC/protein S” value (factor Va [2]; [7])?
**A.** Its value is “dramatically enhanced factor Va inactivation”.

**Q.** What about the “effect on factor Va inactivation by APC:protein S, glycolipid incorporated into PC/PS vesicles (overall statement)” value (factor Va [2]) of the same molecule?
**A.** The value was “significantly directly enhance inactivation”.
